This note sets out measurements from ChEMBL document CHEMBL3352427, “Rational design of the first difluorostatone-based PfSUB1 inhibitors” (Bioorg Med Chem Lett, 2014).

Starred links: 1 amine or outer side, 2 acyl side, 3 side chain; linkers in the order of their positions; H or OH if unused. Non-standard residues stand in square brackets, D forms with d. Residues, ends and D or L forms follow the SMILES beside them. *: point of attachment. X1 = C[C@H](N[*:1])C(=O)C(F)(F)C(=O)[*:2]; X2 = C[C@H](N[*:1])C(O)C(F)(F)C(=O)[*:2]; Cbz = O=C(OCc1ccccc1)*; OBn = c1ccc(CO*)cc1; Bn = c1ccc(C*)cc1; βAla = NCCC(=O)O

A word on the inhibition: it is the share of the control response that was lost under treatment. A lower inhibition goes with little suppression. By IC50 is commonly meant the concentration needed to halve the response being measured. Higher therefore signals weaker potency in that assay.

Assay [1] deals with T1, Subtilisin-like protease 1 (Plasmodium falciparum) (UniProt O61142).
T1 sequence (whole entry): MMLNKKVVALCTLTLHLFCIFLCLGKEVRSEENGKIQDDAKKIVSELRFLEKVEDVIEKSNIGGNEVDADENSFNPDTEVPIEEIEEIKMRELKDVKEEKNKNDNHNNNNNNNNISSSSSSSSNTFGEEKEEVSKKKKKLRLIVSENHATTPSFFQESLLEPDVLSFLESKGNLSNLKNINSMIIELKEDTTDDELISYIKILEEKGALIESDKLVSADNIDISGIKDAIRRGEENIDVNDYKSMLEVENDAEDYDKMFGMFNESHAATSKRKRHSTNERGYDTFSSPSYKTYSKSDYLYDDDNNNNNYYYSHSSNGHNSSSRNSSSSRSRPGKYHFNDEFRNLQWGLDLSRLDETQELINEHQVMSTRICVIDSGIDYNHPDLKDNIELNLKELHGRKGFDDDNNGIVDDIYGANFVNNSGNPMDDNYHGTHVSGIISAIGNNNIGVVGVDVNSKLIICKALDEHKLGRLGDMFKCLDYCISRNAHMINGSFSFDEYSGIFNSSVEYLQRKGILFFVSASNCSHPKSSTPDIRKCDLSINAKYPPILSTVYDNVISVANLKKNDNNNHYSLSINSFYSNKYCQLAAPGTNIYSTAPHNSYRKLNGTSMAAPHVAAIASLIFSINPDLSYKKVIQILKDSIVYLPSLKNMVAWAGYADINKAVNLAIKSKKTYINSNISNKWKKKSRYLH
Nature of the assay: Inhibition of Plasmodium falciparum serine protease subtilisin-like protease 1 at 100 uM by fluorimetric assay.

Assay [2] concerns the target T2, Subtilisin-like protease 1 (Plasmodium falciparum, UniProt O61142).
T2 sequence (O61142 whole entry): T1 sequence (whole entry)
Kind of assay: Inhibition of Plasmodium falciparum serine protease subtilisin-like protease 1by fluorimetric assay.

The compound `CC[C@H](C)[C@H](NC(=O)[C@H](CCCCN)NC(C)=O)C(=O)N[C@H](C(=O)N[C@@H](C)C(=O)N[C@@H](C)C(=O)C(F)(F)C(=O)NCCC(=O)O)[C@@H](C)O` (HELM PEPTIDE1{[ac].K.I.T.A.[C[C@H](N[*:1])C(=O)C(F)(F)C(=O)[*:2]].[bAla]}$$$$V2.0) displayed an inhibition in assay [1] of 63%. The same compound registered an IC50 in assay [2] of 60 µM.

In assay [1], `CC(=O)N[C@H](C(=O)N[C@@H](C)C(=O)N[C@@H](C)C(=O)C(F)(F)C(=O)NCC(=O)O)[C@@H](C)O` registered an inhibition of 6%.

`CC[C@H](C)[C@H](NC(C)=O)C(=O)N[C@H](C(=O)N[C@@H](C)C(=O)N[C@@H](C)C(=O)C(F)(F)C(=O)NCC(=O)OCc1ccccc1)[C@@H](C)OCc1ccccc1` (Ac-IT(Bn)A[X1]G-OBn): in assay [1], the inhibition turned out to be 59%. Also, it took 33 µM to reach half-maximal inhibition in assay [2] (IC50).

For the compound `CC[C@H](C)[C@H](NC(=O)[C@H](CCCCNC(=O)OCc1ccccc1)NC(C)=O)C(=O)N[C@H](C(=O)N[C@@H](C)C(=O)N[C@@H](C)C(=O)C(F)(F)C(=O)NCC(=O)OCc1ccccc1)[C@@H](C)OCc1ccccc1` (Ac-K(Cbz)IT(Bn)A[X1]G-OBn), in assay [1], the inhibition turned out to be 71%. Besides, half-maximal inhibition in assay [2] (IC50) required 5 µM.

Regarding `CC[C@H](C)[C@H](NC(=O)[C@H](CCCCNC(=O)OCc1ccccc1)NC(C)=O)C(=O)N[C@H](C(=O)N[C@@H](C)C(=O)N[C@@H](C)C(O)C(F)(F)C(=O)NCC(=O)OCc1ccccc1)[C@@H](C)OCc1ccccc1` (some centres undefined) (Ac-K(Cbz)IT(Bn)A[X2]G-OBn), the inhibition in assay [1] was 3%.

In the case of `CC[C@H](C)[C@H](NC(C)=O)C(=O)N[C@H](C(=O)N[C@@H](C)C(=O)N[C@@H](C)C(O)C(F)(F)C(=O)NCC(=O)OCc1ccccc1)[C@@H](C)OCc1ccccc1` (mixture of isomers), in assay [1], the inhibition was 0%.

Regarding `CC[C@H](C)[C@H](NC(=O)[C@H](CCCCN)NC(C)=O)C(=O)N[C@H](C(=O)N[C@@H](C)C(=O)N[C@@H](C)C(=O)C(F)(F)C(=O)NCC(=O)O)[C@@H](C)O` (HELM PEPTIDE1{[ac].K.I.T.A.[C[C@H](N[*:1])C(=O)C(F)(F)C(=O)[*:2]].G}$$$$V2.0), the inhibition in assay [1] is 100%. Also, half-maximal inhibition in assay [2] (IC50) was put at 0.6 µM.

Turning to `CC[C@H](C)[C@H](NC(C)=O)C(=O)N[C@H](C(=O)N[C@@H](C)C(=O)N[C@@H](C)C(=O)C(F)(F)C(=O)NCC(=O)O)[C@@H](C)O` (HELM PEPTIDE1{[ac].I.T.A.[C[C@H](N[*:1])C(=O)C(F)(F)C(=O)[*:2]].G}$$$$V2.0), the inhibition in assay [1] was 99%. In assay [2], this compound had an IC50 of 0.6 µM.

Compound `CC[C@H](C)[C@H](NC(=O)[C@H](CCCCNC(=O)OCc1ccccc1)NC(C)=O)C(=O)N[C@H](C(=O)N[C@@H](C)C(=O)N[C@@H](C)C(=O)C(F)(F)C(=O)NCCC(=O)OCc1ccccc1)[C@@H](C)OCc1ccccc1` (Ac-K(Cbz)IT(Bn)A[X1][βAla]-OBn) gave an inhibition in assay [1] of 14%.
